From PubChem BioAssay AID504746 (National Center for Advancing Translational Sciences (NCATS), 2011)

Test system: mouse liver microsomes + NADPH, LC-MS/MS % remaining
Assay: Inhibitors of N370S glucocerebrosidase as a Potential Chaperone Treatment of Gaucher Disease: Metabolic Stability Profile with NADPH
Conditions: at 5 µM; higher = more stable (active)
Description: Glucocerebrosidase (GC) catalyzes the hydrolysis of beta-glucocerebroside to glucose and ceramide in lysosomes. Mutations in the glucocerebrosidase gene result in Gaucher disease, an autosomal recessive lysosomal storage disorder. Many of the mutations encountered in patients with Gaucher disease are missense alterations that may cause misfolding, decreased stability and/or mistrafficking of this lysosomal protein. […] These inhibitors include iminosugar analogs and three non-iminosugar inhibitors identified from a previous HTS of 62,000 compounds with the wild type recombinant enzyme. After further testing a probe has been identified and was characterized though AMDE tests. Mouse liver microsomes are created through broken up endoplasmic reticulum from mouse liver. These liver microsomes contain many drug metabolizing enzymes, such as Cytochome P-450s and flavin-containing monooxygenases. […] NIH Chemical Genomics Center [NCGC] NIH Molecular Libraries Probe Production Centers Network [MLPCN] MLPCN Grant: MH086442-01 Assay Submitter (PI): Wei Zheng
5uM of compound is incubated with mouse liver microsome in the presence of NADPH; the reference compounds are verapamil and warfarin. Compounds are incubated and samples are analyzed with LC-MS/MS.

percent remaining: 58%
Compound: S=C(NCCCc1cnc[nH]1)NCCCN(Cc1ccc(Cl)c(Cl)c1)c1ccc(Br)cn1
